The source made the active and inactive calls. The rule behind the calls is not given here.
Tests used:
[1] = biological target: Lysophosphatidic acid receptor 5 (Rattus norvegicus, UniProt D4ADR1); assay: Antagonist activity at rat LPA5 receptor expressed in CHO cells assessed as inhibition of LPA-induced cAMP accumulation after 30 mins by Lance Ultra assay; format: cell-based
Rattus norvegicus [2] = assay: Analgesic effect in rat chronic constriction injury model assessed as reduction in mechanical allodynia at 10 mg/kg, ip by Von Frey test; format: functional, organism-based
[3] = Brain to plasma partition coefficient, Kp of the compound in rat at 60 mg/kg, ip measured after 0.5 hrs by LC-MS analysis; format: ADME, organism-based
[4] = Plasma concentration in rat at 60 mg/kg, ip measured after 0.5 hrs by LC-MS analysis; format: ADME, organism-based
Rattus norvegicus [5] = assay: Analgesic effect in rat chronic constriction injury model assessed as reduction in mechanical allodynia at 60 mg/kg, ip by Von Frey test; format: functional, organism-based
[6] = Drug uptake in rat brain at 60 mg/kg, ip measured after 0.5 hrs by LC-MS analysis; format: ADME, organism-based; settings: read-out: Drug uptake

Lysophosphatidic acid receptor 5, sequence (D4ADR1 whole entry): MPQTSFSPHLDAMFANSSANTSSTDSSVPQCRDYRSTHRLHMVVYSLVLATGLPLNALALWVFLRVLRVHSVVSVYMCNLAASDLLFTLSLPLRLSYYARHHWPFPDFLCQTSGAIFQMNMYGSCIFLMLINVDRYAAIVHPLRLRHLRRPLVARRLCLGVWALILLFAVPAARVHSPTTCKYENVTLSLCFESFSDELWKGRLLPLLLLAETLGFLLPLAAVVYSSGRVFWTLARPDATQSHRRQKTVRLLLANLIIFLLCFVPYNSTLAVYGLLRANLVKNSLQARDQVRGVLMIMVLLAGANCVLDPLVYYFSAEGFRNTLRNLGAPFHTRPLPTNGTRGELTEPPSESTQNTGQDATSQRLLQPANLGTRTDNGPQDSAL

SMILES	IC50 [1]	further results
CCN1CCc2ccc(-n3cc(C(=O)N4CCCCCC4)c4cc(OC)c(OC)cc4c3=O)cc21	110 nM	
COc1cc2c(C(=O)N3CCCCCC3)cn(-c3ccc(C(N)=O)cc3)c(=O)c2cc1OC	> 30000 nM	
CCN1CCc2ccc(-n3cc(C(=O)N4CCC(F)CC4)c4cc(OC)c(OC)cc4c3=O)cc21	120 nM	Activity (Rattus norvegicus [2]): inactive; Kp at 0.5 h [3]: 0.13; concentration at 0.5 h [4]: 9.06 µM; Activity (Rattus norvegicus [5]): Active; concentration at 0.5 h [6]: 1.22 µM
CCOc1ccc(-n2cc(C(=O)N3CCCCCC3)c3cc(OC)c(OC)cc3c2=O)cc1	1800 nM	
CCOc1ccc(-n2cc(C(=O)N3CCC(F)CC3)c3cc(OC)c(OC)cc3c2=O)cc1	750 nM	
COc1cc2c(C(=O)N3CCCCCC3)cn(-c3ccc(C)c(C)c3)c(=O)c2cc1OC	720 nM	
COc1cc2c(C(=O)N3CCCCCC3)cn(-c3ccc(F)cc3)c(=O)c2cc1OC	> 3000 nM	
COc1cc2c(C(=O)N3CCCCCC3)cn(-c3cccc(N(C)C)c3)c(=O)c2cc1OC	130 nM	
CCc1ccc(-n2cc(C(=O)N3CCCCCC3)c3cc(OC)c(OC)cc3c2=O)cc1	570 nM	
CCCCCCN(C)C(=O)c1cn(-c2ccc(OCC)cc2)c(=O)c2cc(OC)c(OC)cc12	> 10000 nM	
COc1cc2c(C(=O)N3CCCCCC3)cn(C(C)C)c(=O)c2cc1OC	> 30000 nM	

— ChEMBL document CHEMBL4184178, “Identification of potent lysophosphatidic acid receptor 5 (LPA5) antagonists as potential analgesic agents” (Bioorg Med Chem, 2018)
